Test results taken from ChEMBL document CHEMBL3243921, “2-Pyrrolidinylideneureas, a new class of central nervous system agents” (J Med Chem, 1978).
Active and inactive are the calls of the source.

Test system: Mus musculus
Assay: Sedative activity in mouse assessed as increase in pentylenetetrazol-induced pseudo-convulsive threshold at 25 to 200 mg/kg, po
Type: functional, organism-based
Details: not given

| SMILES | Activity |
| --- | --- |
| CN1CCC/C1=N\C(=O)Nc1cccc(C(F)(F)F)c1 | Active |
| Cc1cccc(NC(=O)/N=C2\CCCN2C)c1 | Active |
| CN1CCC/C1=N\C(=O)Nc1cccc(Br)c1 | Active |
| CN1CCC/C1=N\C(=O)Nc1ccccc1 | Active |

Test system: Mus musculus
Assay: Sedative activity in mouse assessed as increase in pentylenetetrazol-induced pseudo-convulsive threshold up to 200 mg/kg, po
Type: functional, organism-based
Parameters: dose 200 mg/kg
Details: not given

| SMILES | Activity |
| --- | --- |
| Cc1cccc(C)c1NC(=O)/N=C1\CCCN1C [XILOBAM] | inactive |
| CCc1cccc(CC)c1NC(=O)/N=C1\CCCN1C | inactive |
| CN1CCC/C1=N\C(=O)Nc1c(Br)cccc1Br | inactive |
| CC(C)c1cccc(C(C)C)c1NC(=O)/N=C1\CCCN1C | inactive |
| CN1CCC/C1=N\C(=O)Nc1c(Cl)cccc1Cl | inactive |
| COc1cccc(OC)c1NC(=O)/N=C1\CCCN1C | inactive |

Test system: Mus musculus
Assay: Potency index, ratio of chlorzoxazone MED20 to compound MED20 for muscle relaxant activity in po dosed mouse assessed as blockade of pentylenetetrazol-induced tonic extensor seizure
Type: functional
Details: not given

| SMILES | Ratio |
| --- | --- |
| CCc1cccc(CC)c1NC(=O)/N=C1\CCCN1C | 4 |
| CN1CCC/C1=N\C(=O)Nc1c(Br)cccc1Br | 4 |
| CN1CCC/C1=N\C(=O)Nc1c(Cl)cccc1Cl | 4 |

Test system: Mus musculus
Assay: Acute toxicity in po dosed mouse assessed as concentration required to produce 50% loss of righting reflex administered as qd for 4 days measured for 1 min post last dose
Type: organism-based
Details: in vivo

| SMILES | PD50 |
| --- | --- |
| Cc1cccc(C)c1NC(=O)/N=C1\CCCN1C [XILOBAM] | 230 mg/kg |
| CCc1cccc(CC)c1NC(=O)/N=C1\CCCN1C | 161 mg/kg |
| CN1CCC/C1=N\C(=O)Nc1c(Br)cccc1Br | 350 mg/kg |
| CN1CCC/C1=N\C(=O)Nc1cccc(C(F)(F)F)c1 | 1000 mg/kg |
| Cc1cccc(NC(=O)/N=C2\CCCN2C)c1 | 825 mg/kg |
| CN1CCC/C1=N\C(=O)Nc1c(Cl)cccc1Cl | 320 mg/kg |
| COc1cccc(OC)c1NC(=O)/N=C1\CCCN1C | 460 mg/kg |
| CN1CCC/C1=N\C(=O)Nc1cccc(F)c1 | 500 mg/kg |
| COc1cccc(NC(=O)/N=C2\CCC(C)N2C)c1 (centres undefined) | 680 mg/kg |
| CN1CCC/C1=N\C(=O)Nc1cccc(Br)c1 | 1430 mg/kg |
| CN1CCC/C1=N\C(=O)Nc1cccc(I)c1 | > 820 mg/kg |
| CN1CCC/C1=N\C(=O)Nc1ccccc1 | 220 mg/kg |

Test system: Rattus norvegicus
Assay: Antianxiety activity in ip dosed rat assessed as effect on increase in punished responses administered qd for 5 days measured every day for 5 days
Type: functional
Details: 120 h, read-out: MED

| SMILES | minimal effective dose |
| --- | --- |
| Cc1cccc(C)c1NC(=O)/N=C1\CCCN1C [XILOBAM] | > 25 mg/kg |
| CCc1cccc(CC)c1NC(=O)/N=C1\CCCN1C | > 25 mg/kg |
| CN1CCC/C1=N\C(=O)Nc1c(Br)cccc1Br | > 25 mg/kg |
| CN1CCC/C1=N\C(=O)Nc1cccc(C(F)(F)F)c1 | > 25 mg/kg |
| Cc1cccc(NC(=O)/N=C2\CCCN2C)c1 | 25 mg/kg |
| CN1CCC/C1=N\C(=O)Nc1c(Cl)cccc1Cl | > 25 mg/kg |
| COc1cccc(OC)c1NC(=O)/N=C1\CCCN1C | > 25 mg/kg |
| CN1CCC/C1=N\C(=O)Nc1cccc(F)c1 | 25 mg/kg |
| COc1cccc(NC(=O)/N=C2\CCC(C)N2C)c1 (centres undefined) | > 25 mg/kg |
| CN1CCC/C1=N\C(=O)Nc1cccc(Br)c1 | 25 mg/kg |
| CN1CCC/C1=N\C(=O)Nc1cccc(I)c1 | > 25 mg/kg |
| CN1CCC/C1=N\C(=O)Nc1ccccc1 | 15 mg/kg |

Test system: Mus musculus
Assay: Hypnotic activity in mouse assessed as increase in pentylenetetrazol-induced persistent-convulsive threshold up to 200 mg/kg, po
Type: functional, organism-based
Parameters: dose 200 mg/kg
Details: not given

| SMILES | Activity |
| --- | --- |
| Cc1cccc(C)c1NC(=O)/N=C1\CCCN1C [XILOBAM] | inactive |
| CCc1cccc(CC)c1NC(=O)/N=C1\CCCN1C | inactive |
| CN1CCC/C1=N\C(=O)Nc1c(Br)cccc1Br | inactive |
| CC(C)c1cccc(C(C)C)c1NC(=O)/N=C1\CCCN1C | inactive |
| CN1CCC/C1=N\C(=O)Nc1c(Cl)cccc1Cl | inactive |
| COc1cccc(OC)c1NC(=O)/N=C1\CCCN1C | inactive |

Test system: Mus musculus
Assay: Muscle relaxant activity in po dosed mouse assessed as increase in strychnine-induced persistant convulsive threshold
Type: functional
Details: not given

| SMILES | MED25 |
| --- | --- |
| Cc1cccc(C)c1NC(=O)/N=C1\CCCN1C [XILOBAM] | 26 mg/kg |
| CCc1cccc(CC)c1NC(=O)/N=C1\CCCN1C | 120 mg/kg |
| CN1CCC/C1=N\C(=O)Nc1c(Br)cccc1Br | 50 mg/kg |
| CN1CCC/C1=N\C(=O)Nc1cccc(C(F)(F)F)c1 | 58 mg/kg |
| CC(C)c1cccc(C(C)C)c1NC(=O)/N=C1\CCCN1C | >200 mg/kg |
| Cc1cccc(NC(=O)/N=C2\CCCN2C)c1 | >200 mg/kg |
| CN1CCC/C1=N\C(=O)Nc1c(Cl)cccc1Cl | 64 mg/kg |
| COc1cccc(OC)c1NC(=O)/N=C1\CCCN1C | >200 mg/kg |
| CN1CCC/C1=N\C(=O)Nc1cccc(F)c1 | 210 mg/kg |
| COc1cccc(NC(=O)/N=C2\CCC(C)N2C)c1 (centres undefined) | 160 mg/kg |
| CN1CCC/C1=N\C(=O)Nc1cccc(Br)c1 | 58 mg/kg |
| CN1CCC/C1=N\C(=O)Nc1cccc(I)c1 | 86 mg/kg |
| CN1CCC/C1=N\C(=O)Nc1ccccc1 | 35 mg/kg |

Test system: not listed separately
Assay: Ratio of LD50 for po dosed mouse to PD50 for acute toxicity in po dosed mouse assessed as concentration required to produce 50% loss of righting reflex
Type: organism-based
Details: in vivo

| SMILES | selectivity ratio |
| --- | --- |
| CCc1cccc(CC)c1NC(=O)/N=C1\CCCN1C | 2.3 |
| CN1CCC/C1=N\C(=O)Nc1c(Br)cccc1Br | 1.6 |
| Cc1cccc(NC(=O)/N=C2\CCCN2C)c1 | 1 |
| CN1CCC/C1=N\C(=O)Nc1c(Cl)cccc1Cl | 1.8 |
| CCC1(c2ccccc2)C(=O)NC(=O)NC1=O [PHENOBARBITAL] | 3 |
| COc1cccc(OC)c1NC(=O)/N=C1\CCCN1C | 1.4 |
| CN1CCC/C1=N\C(=O)Nc1cccc(F)c1 | 1 |
| COc1cccc(NC(=O)/N=C2\CCC(C)N2C)c1 (centres undefined) | 1.5 |
| CN1CCC/C1=N\C(=O)Nc1cccc(Br)c1 | 1.1 |
| CN1CCC/C1=N\C(=O)Nc1ccccc1 | 1 |

Test system: not listed separately
Assay: Therapeutic index, ratio of PD50 for acute toxicity in po dosed mouse assessed as concentration required to produce 50% loss of righting reflex to MED causing antianxiety activity in ip dosed rat assessed as effect on increase in punished responses
Type: organism-based
Details: in vivo, other: oral (PD50, mouse) and intraperitoneal (MED, rat), read-out: TI

| SMILES | selectivity ratio |
| --- | --- |
| Cc1cccc(NC(=O)/N=C2\CCCN2C)c1 | 33 |
| CN1CCC/C1=N\C(=O)Nc1cccc(F)c1 | 20 |
| CN1CCC/C1=N\C(=O)Nc1cccc(Br)c1 | 57 |
| CN1CCC/C1=N\C(=O)Nc1ccccc1 | 15 |

Test system: Mus musculus
Assay: Muscle relaxant activity in po dosed mouse assessed as blockade of pentylenetetrazol-induced tonic extensor seizure
Type: functional
Details: not given

| SMILES | MED20 |
| --- | --- |
| Cc1cccc(C)c1NC(=O)/N=C1\CCCN1C [XILOBAM] | 22 mg/kg |
| CCc1cccc(CC)c1NC(=O)/N=C1\CCCN1C | 16 mg/kg |
| CN1CCC/C1=N\C(=O)Nc1c(Br)cccc1Br | 25 mg/kg |
| CN1CCC/C1=N\C(=O)Nc1cccc(C(F)(F)F)c1 | 47 mg/kg |
| CC(C)c1cccc(C(C)C)c1NC(=O)/N=C1\CCCN1C | 180 mg/kg |
| Cc1cccc(NC(=O)/N=C2\CCCN2C)c1 | 25 mg/kg |
| CN1CCC/C1=N\C(=O)Nc1c(Cl)cccc1Cl | 25 mg/kg |
| COc1cccc(OC)c1NC(=O)/N=C1\CCCN1C | 62 mg/kg |
| CN1CCC/C1=N\C(=O)Nc1cccc(F)c1 | 38 mg/kg |
| COc1cccc(NC(=O)/N=C2\CCC(C)N2C)c1 (centres undefined) | 68 mg/kg |
| CN1CCC/C1=N\C(=O)Nc1cccc(Br)c1 | 52 mg/kg |
| CN1CCC/C1=N\C(=O)Nc1cccc(I)c1 | 36 mg/kg |
| CN1CCC/C1=N\C(=O)Nc1ccccc1 | 40 mg/kg |

Test system: Mus musculus
Assay: Anticonvulsant activity in po dosed mouse assessed as blockade of supramaximal electroshock-induced […] seizure
Type: functional
Details: not given

| SMILES | MED20 |
| --- | --- |
| Cc1cccc(C)c1NC(=O)/N=C1\CCCN1C [XILOBAM] | 27 mg/kg |
| CCc1cccc(CC)c1NC(=O)/N=C1\CCCN1C | 64 mg/kg |
| CN1CCC/C1=N\C(=O)Nc1c(Br)cccc1Br | 74 mg/kg |
| CN1CCC/C1=N\C(=O)Nc1cccc(C(F)(F)F)c1 | 76 mg/kg |
| CC(C)c1cccc(C(C)C)c1NC(=O)/N=C1\CCCN1C | 165 mg/kg |
| Cc1cccc(NC(=O)/N=C2\CCCN2C)c1 | 76 mg/kg |
| CN1CCC/C1=N\C(=O)Nc1c(Cl)cccc1Cl | 58 mg/kg |
| COc1cccc(OC)c1NC(=O)/N=C1\CCCN1C | 80 mg/kg |
| CN1CCC/C1=N\C(=O)Nc1cccc(F)c1 | 200 mg/kg |
| COc1cccc(NC(=O)/N=C2\CCC(C)N2C)c1 (centres undefined) | 135 mg/kg |
| CN1CCC/C1=N\C(=O)Nc1cccc(Br)c1 | 180 mg/kg |
| CN1CCC/C1=N\C(=O)Nc1cccc(I)c1 | 112 mg/kg |
| CN1CCC/C1=N\C(=O)Nc1ccccc1 | >100 mg/kg |

Test system: not listed separately
Assay: Acute toxicity in po dosed mouse assessed as mortality administered as qd for 6 days measured on day 7 post last dose
Type: organism-based
Details: in vivo

| SMILES | LD50 at 144 h |
| --- | --- |
| CCc1cccc(CC)c1NC(=O)/N=C1\CCCN1C | 370 mg/kg |
| CN1CCC/C1=N\C(=O)Nc1c(Br)cccc1Br | 560 mg/kg |
| CN1CCC/C1=N\C(=O)Nc1cccc(C(F)(F)F)c1 | > 1000 mg/kg |
| CC(C)c1cccc(C(C)C)c1NC(=O)/N=C1\CCCN1C | 260 mg/kg |
| Cc1cccc(NC(=O)/N=C2\CCCN2C)c1 | 850 mg/kg |
| CN1CCC/C1=N\C(=O)Nc1c(Cl)cccc1Cl | 565 mg/kg |
| COc1cccc(OC)c1NC(=O)/N=C1\CCCN1C | 650 mg/kg |
| CN1CCC/C1=N\C(=O)Nc1cccc(F)c1 | 525 mg/kg |
| COc1cccc(NC(=O)/N=C2\CCC(C)N2C)c1 (centres undefined) | 1900 mg/kg |
| CN1CCC/C1=N\C(=O)Nc1cccc(Br)c1 | 1580 mg/kg |
| CN1CCC/C1=N\C(=O)Nc1cccc(I)c1 | > 1000 mg/kg |
| CN1CCC/C1=N\C(=O)Nc1ccccc1 | 215 mg/kg |

Test system: Mus musculus
Assay: Blockade of pentylenetetrazol-induced lethality in mouse assessed as delay in occurrence of death time up to 200 mg/kg, po
Type: functional
Details: not given

| SMILES | Time |
| --- | --- |
| CCc1cccc(CC)c1NC(=O)/N=C1\CCCN1C | 1 min |
| CN1CCC/C1=N\C(=O)Nc1c(Br)cccc1Br | 1 min |
| CC(C)c1cccc(C(C)C)c1NC(=O)/N=C1\CCCN1C | 1 min |
| CN1CCC/C1=N\C(=O)Nc1c(Cl)cccc1Cl | 1 min |
| COc1cccc(OC)c1NC(=O)/N=C1\CCCN1C | 1 min |

Test system: Mus musculus
Assay: Potency index, ratio of methocarbamol MED20 to compound MED20 for muscle relaxant activity in po dosed mouse assessed as blockade of pentylenetetrazol-induced tonic extensor seizure
Type: functional
Details: not given

| SMILES | Ratio |
| --- | --- |
| CCc1cccc(CC)c1NC(=O)/N=C1\CCCN1C | 4 |
| CN1CCC/C1=N\C(=O)Nc1c(Br)cccc1Br | 4 |
| CN1CCC/C1=N\C(=O)Nc1c(Cl)cccc1Cl | 4 |

Test system: not listed separately
Assay: Therapeutic index, ratio of PD50 for acute toxicity in po dosed mouse assessed as concentration required to produce 50% loss of righting reflex to MED25 for muscle relaxant activity in po dosed mouse assessed as increase in strychnine-induced persistant convulsive threshold
Type: organism-based
Details: in vivo, read-out: TI

| SMILES | selectivity ratio |
| --- | --- |
| CCc1cccc(CC)c1NC(=O)/N=C1\CCCN1C | 1.3 |
| CN1CCC/C1=N\C(=O)Nc1c(Br)cccc1Br | 7 |
| CN1CCC/C1=N\C(=O)Nc1c(Cl)cccc1Cl | 5 |
